In US10414739B2, “Compounds as inhibitors of the YAP/TAZ-TEAD interaction and their use in the treatment of malignant mesothelioma” (INVENTIVA, priority 2015, dated 2019) one finds Emax and IC50 data, which are given here for 27 molecules.

The target in the assay is T1, YAP-TEAD interaction (human YAP2-His6 (50-114) / human TEAD1-GST (209-426)) (Homo sapiens, UniProt P28347).
T1 construct: GST-TEAD1 (209-426) produced in E. coli; made in house; host or cells: E. coli
Briefly: YAP-TEAD AlphaLISA assay. The format is binding. The following applies: YAP-TEAD AlphaLISA; for Emax: 2 h, maximal % inhibition, read-out: Max Act.; for IC50: 2 h equilibration at room temperature. The protocol: YAP-TEAD AlphaLISA Assay for IC50 Value Determination.
YAP-TEAD binding and inhibition was assessed by monitoring the engagement of YAP2 peptide (human YAP2-His6 (50-114) produced in E. coli) with TEAD (human TEAD1-GST (GST-TEAD1 (209-426) produced in E. coli) using the AlphaLisa technology (Perkin-Elmer). Specifically, in a 384 well (Axygen) 5 μl of compounds were dispensed in 100% DMSO following a semi log serial dilution, with a top concentration of […] (10 concentrations). A ‘3 partners solution’ was prepared by mixing AlphaScreen Glutathione Donor beads 15 μg/ml (PerkinElmer), Anti-6×His AlphaLisA Acceptor beads 15 μg/ml (PerkinElmer) and Human YAP2 9 nM in 100 mM NaCl, 25 mM Hepes, 0.1% BSA, 0.5% NoNidet®P40 buffer. In the 384 assay plate (Proxiplate, Perkin-Elmer)) 2 μl of compound at each concentration, 6 μl of buffer, 6 μl of hTEAD1-GST 9 nM and 6 μl of ‘3 partner solution’ were mixed. After 2 h equilibration at room temperature in the dark the plates were read on an Envision instrument (Excitation @ 680 nm/Emission @ 570 nm, Perkin Elmer).
Results were expressed as % inhibition=100×((HighControl−Cpd)/(HighControl−LowControl)), were High control is the maximum response obtained with all components and Low control is the basal response obtained with all components without GST-Tead1.
Cpd is the response obtained for test compounds.
IC50 (half maximal inhibitory concentration) was determined by fitting the concentration response curves using a 3-parameter curve fit equation and determining concentration corresponding to 50% inhibition.
Background: Bead proximity is the source of the signal in Alpha formats.

Where a name gives a salt, the structure may show the parent alone.

T1 sequence (P28347 209-426): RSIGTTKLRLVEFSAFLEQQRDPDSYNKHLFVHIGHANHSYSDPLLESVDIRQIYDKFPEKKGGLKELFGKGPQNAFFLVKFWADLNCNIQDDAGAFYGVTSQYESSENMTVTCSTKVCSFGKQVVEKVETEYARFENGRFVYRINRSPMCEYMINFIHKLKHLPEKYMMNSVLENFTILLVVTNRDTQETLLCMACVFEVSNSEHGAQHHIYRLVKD

The term IC50 denotes the concentration needed to halve the response being measured. Higher therefore signals lower potency. For `CCN(/N=C/c1ccc(O)c(OC)c1)C1=NS(=O)(=O)c2ccccc21` [Example 3, 4-[(E)-[(1,1-dioxo-1,2-benzothiazol-3-yl)-ethyl-hydrazono]methyl]-2-methoxy-phenol], the Emax amounted to 88% and the half-maximal inhibitory concentration (IC50) amounted to 5000 nM.

`COc1cc(/C=N/N(CCN2CCOCC2)C2=NS(=O)(=O)c3ccccc32)ccc1O` [Example 4, 4-[(E)-[(1,1-dioxo-1,2-benzothiazol-3-yl)-(2-morpholinoethyl)hydrazono]methyl]-2-methoxy-phenol hydrochloride]: the Emax came out at 97% and 615 nM corresponded to half-maximal inhibition (IC50).

As for `COc1cc(/C=N/N(CCCO)C2=NS(=O)(=O)c3ccccc32)ccc1O` [Example 5, 4-[(E)-[(1,1-dioxo-1,2-benzothiazol-3-yl)-(3-hydroxypropyl)hydrazono]-methyl]-2-methoxy-phenol], the Emax is 88% and inhibition was half-maximal at 5500 nM (IC50).

Turning to `COc1cc(/C=N/N(CCCN(C)C)C2=NS(=O)(=O)c3ccccc32)ccc1O` [Example 6, 4-[(E)-[3-(dimethylamino)propyl-(1,1-dioxo-1,2-benzothiazol-3-yl)hydrazono]methyl]-2-methoxy-phenol hydrochloride], the Emax stood at 95% and it took 7040 nM to reach half-maximal inhibition (IC50).

Turning to `COc1cc(/C=N/N(CCC(=O)O)C2=NS(=O)(=O)c3ccccc32)ccc1O` [Example 8, 3-[(1,1-dioxo-1,2-benzothiazol-3-yl)-[(E)-(4-hydroxy-3-methoxy-phenyl)methyleneamino]amino]propanoic acid], the Emax came to 94% and the concentration for half-maximal inhibition (IC50) turned out to be 1100 nM.

In the case of `COc1cc(/C=N/N(CC(=O)NCCO)C2=NS(=O)(=O)c3ccccc32)ccc1O` [Example 9, 2-[(1,1-dioxo-1,2-benzothiazol-3-yl)-[(E)-(4-hydroxy-3-methoxy-phenyl)methyleneamino]amino]-N-(2-hydroxyethyl)acetamide], the Emax turned out to be 96% and half-maximal inhibition (IC50) required 11600 nM.

For the molecule `COCCCN(/N=C/c1ccc(O)c(OC)c1)C1=NS(=O)(=O)c2ccccc21` [Example 10], the Emax is 92% and the IC50 was determined as 5000 nM.

As to `COc1ccc2c(c1)C(N(CCO)/N=C/c1ccc(O)c(OC)c1)=NS2(=O)=O` [Example 11, 4-[(E)-[2-hydroxyethyl-(5-methoxy-1,1-dioxo-1,2-benzothiazol-3-yl) hydrazono]methyl]-2-methoxy-phenol], the Emax came out at 94% and the IC50 was determined as 475 nM.

For `COc1ccc2c(c1)C(N(CCN1CCOCC1)/N=C/c1ccc(O)c(OC)c1)=NS2(=O)=O` [Example 12, 2-methoxy-4-[(E)-[(5-methoxy-1,1-dioxo-1,2-benzothiazol-3-yl)-(2-morpholinoethyl)hydrazono]methyl]phenol], the Emax came to 95% and the half-inhibitory concentration (IC50) worked out at 583 nM.

On to `COc1ccc2c(c1)C(N(CCCN1CCOCC1)/N=C/c1ccc(O)c(OC)c1)=NS2(=O)=O` [Example 13, 2-methoxy-4-[(E)-[(5-methoxy-1,1-dioxo-1,2-benzothiazol-3-yl)-(3-morpholinopropyl)hydrazono]methyl]phenol hydrochloride], for which the Emax came out at 95% and the midpoint of inhibition, the IC50, lay at 2120 nM.

On to `COc1ccc2c(c1)C(N(CCCO)/N=C/c1ccc(O)c(OC)c1)=NS2(=O)=O` [Example 14, 4-[(E)-[3-hydroxypropyl-(5-methoxy-1,1-dioxo-1,2-benzothiazol-3-yl) hydrazono]methyl]-2-methoxy-phenol], for which the Emax was 90% and the IC50 amounted to 1630 nM.

Consider `COCCN(/N=C/c1ccc(O)c(OC)c1)C1=NS(=O)(=O)c2ccc(OC)cc21` [Example 15, 2-methoxy-4-[(E)-[(5-methoxy-1,1-dioxo-1,2-benzothiazol-3-yl)-(2-methoxyethyl)hydrazono]methyl]phenol], for which the Emax was 89% and the midpoint of inhibition, the IC50, lay at 2890 nM.

`COc1cc(OC)c2c(c1)C(N(C)/N=C/c1ccc(O)c(OC)c1)=NS2(=O)=O` [Example 16, 4-[(E)-[(5,7-dimethoxy-1,1-dioxo-1,2-benzothiazol-3-yl)-methyl-hydrazono]methyl]-2-methoxy-phenol]: the Emax came out at 86% and the IC50 stood at 95 nM.

Turning to `COc1cc(OC)c2c(c1)C(N(CCO)/N=C/c1ccc(O)c(OC)c1)=NS2(=O)=O` [Example 17, 4-[(E)-[(5,7-dimethoxy-1,1-dioxo-1,2-benzothiazol-3-yl)-(2-hydroxyethyl) hydrazono]methyl]-2-methoxy-phenol], the Emax was 90% and the IC50 was determined as 150 nM.

For the molecule `COc1cc(OC)c2c(c1)C(N(CCN1CCOCC1)/N=C/c1ccc(O)c(OC)c1)=NS2(=O)=O` [Example 18, 4-[(E)-[(5,7-dimethoxy-1,1-dioxo-1,2-benzothiazol-3-yl)-(2-morpholino-ethyl)hydrazono]methyl]-2-methoxy-phenol hydrochloride], the Emax came out at 97% and inhibition was half-maximal at 84 nM (IC50).

With `COCCN(/N=C/c1ccc(O)c(OC)c1)C1=NS(=O)(=O)c2c(OC)cc(OC)cc21` [Example 19, 4-[(E)-[(5,7-dimethoxy-1,1-dioxo-1,2-benzothiazol-3-yl)-(2-methoxyethyl) hydrazono]methyl]-2-methoxy-phenol], the Emax was found to be 92% and the midpoint of inhibition, the IC50, lay at 626 nM.

As for `COc1cc(/C=N/N(C)C2=NS(=O)(=O)c3c(OC)cccc32)ccc1O` [Example 21, 2-methoxy-4-[(E)-[(7-methoxy-1,1-dioxo-1,2-benzothiazol-3-yl)-methyl-hydrazono]methyl]phenol], the Emax turned out to be 89% and the half-maximal inhibitory concentration (IC50) stood at 123 nM.

For the molecule `COc1cc(/C=N/N(CCO)C2=NS(=O)(=O)c3c(OC)cccc32)ccc1O` [Example 22, 4-[(E)-[2-hydroxyethyl-(7-methoxy-1,1-dioxo-1,2-benzothiazol-3-yl) hydrazono]methyl]-2-methoxy-phenol], the Emax came out at 97% and the IC50 was 83 nM.

For the molecule `COc1cc(/C=N/N(CCN2CCOCC2)C2=NS(=O)(=O)c3c(OC)cccc32)ccc1O` [Example 23, 2-methoxy-4-[(E)-[(7-methoxy-1,1-dioxo-1,2-benzothiazol-3-yl)-(2-morpholinoethyl)hydrazono]methyl]phenol hydrochloride], the Emax stood at 99% and the IC50 stood at 305 nM.

As for `COCCN(/N=C/c1ccc(O)c(OC)c1)C1=NS(=O)(=O)c2c(OC)cccc21` [Example 24, 2-methoxy-4-[(E)-[(7-methoxy-1,1-dioxo-1,2-benzothiazol-3-yl)-(2-methoxyethyl)hydrazono]methyl]phenol], the Emax came to 92% and the 50% inhibitory concentration (IC50) turned out to be 902 nM.

Consider `COc1cc(/C=N/N(C)C2=NS(=O)(=O)c3ccc(C)cc32)ccc1O` [Example 25, 2-methoxy-4-[(E)-[methyl-(5-methyl-1,1-dioxo-1,2-benzothiazol-3-yl)hydrazono]methyl]phenol], for which the Emax was determined as 90% and the half-inhibitory concentration (IC50) was determined as 568 nM.

In the case of `COc1cc(/C=N/N(CCN2CCOCC2)C2=NS(=O)(=O)c3ccc(C)cc32)ccc1O` [Example 26, 2-methoxy-4-[(E)-[(5-methyl-1,1-dioxo-1,2-benzothiazol-3-yl)-(2-morpholinoethyl)hydrazono]methyl]phenol hydrochloride], the Emax was determined as 95% and the midpoint of inhibition, the IC50, lay at 399 nM.

With `COc1cc(/C=N/N(CCO)C2=NS(=O)(=O)c3ccc(C)cc32)ccc1O` [Example 27, 4-[(E)-[2-hydroxyethyl-(5-methyl-1,1-dioxo-1,2-benzothiazol-3-yl)hydrazono]methyl]-2-methoxy-phenol], the Emax was determined as 91% and it took 891 nM to reach half-maximal inhibition (IC50).

For `COCCN(/N=C/c1ccc(O)c(OC)c1)C1=NS(=O)(=O)c2ccc(C)cc21` [Example 28, 2-methoxy-4-[(E)-[2-methoxyethyl-(5-methyl-1,1-dioxo-1,2-benzothiazol-3-yl) hydrazono]methyl]phenol], the Emax amounted to 94% and the 50% inhibitory concentration (IC50) was 2650 nM.

Take `COc1cc(/C=N/N(CCO)C2=NS(=O)(=O)c3c(OC)cc(C)cc32)ccc1O` [Example 29, 4-[(E)-[2-hydroxyethyl-(7-methoxy-5-methy-1,1-dioxo-1,2-benzothiazol-3-yl) hydrazono]methyl]-2-methoxy-phenol]: the Emax was 91% and inhibition was half-maximal at 130 nM (IC50).

Consider `COCCN(/N=C/c1ccc(O)c(OC)c1)C1=NS(=O)(=O)c2c(OC)cc(C)cc21` [Example 30, 2-methoxy-4-[(E)-[2-methoxyethyl-(7-methoxy-5-methyl-1,1-dioxo-1,2-benzothiazol-3-yl)hydrazono]methyl]phenol], for which the Emax worked out at 90% and the half-inhibitory concentration (IC50) was determined as 878 nM.

Consider `COc1cc(/C=N/N(C)C2=NS(=O)(=O)c3c(OC)cc(C)cc32)ccc1O` [Example 31, 2-methoxy-4-[(E)-[(7-methoxy-5-methyl-1,1-dioxo-1,2-benzothiazol-3-yl)-methyl-hydrazono]methyl]phenol], for which the Emax amounted to 92% and 131 nM corresponded to half-maximal inhibition (IC50).
